In patent US11214803B2, “Modulators of YAP1 expression” (Ionis Pharmaceuticals, Inc., priority 2019, dated 2022):
Strand notation (5' to 3'): a small letter for the sugar, then the base; units joined by * are phosphorothioate-linked, units joined directly phosphodiester-linked; [ ] holds rarer units or linkages, { } end groups; capitals alone tell only the bases. k = constrained ethyl (cEt); [5mC] = 5-methylcytosine; d = 2'-deoxy (DNA)

System: Yap1 mRNA
Assay: Dose-dependent inhibition of human Yap1 in A-431 cells (Example 7, 10,000 cells per well, RTS36584)
Assay type: cell-based
Conditions: free uptake
Outline: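 A-431 cells at 10,000 per well received modified oligonucleotides by free uptake at several doses. After about 48 hours, Yap1 mRNA was quantified with primer-probe set RTS36584, normalized to RIBOGREEN total RNA and expressed as % untreated control. IC50 came from linear regression on a log/linear plot.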

[1] = Table 56, 15.6 nM, A-431 cells 10,000 cells per well, 48 hours
[2] = Table 56, 62.5 nM, A-431 cells 10,000 cells per well, 48 hours
[3] = Table 56, 4000.00 nM, A-431 cells 10,000 cells per well, 48 hours
[4] = Table 56, A-431 cells 10,000 cells per well
[5] = Table 57, 15.6 nM, A-431 cells 10,000 cells per well, 48 hours
[6] = Table 57, 62.5 nM, A-431 cells 10,000 cells per well, 48 hours
[7] = Table 57, 4000.00 nM, A-431 cells 10,000 cells per well, 48 hours
[8] = Table 57, A-431 cells 10,000 cells per well
[9] = Table 60, 15.6 nM, A-431 cells 10,000 cells per well, 48 hours
[10] = Table 60, 62.5 nM, A-431 cells 10,000 cells per well, 48 hours
[11] = Table 60, 4000.00 nM, A-431 cells 10,000 cells per well, 48 hours
[12] = Table 60, A-431 cells 10,000 cells per well
[13] = 15.6 nM, A-431 cells, 10,000 cells per well, approximately 48 hours
[14] = 62.5 nM, A-431 cells, 10,000 cells per well, approximately 48 hours
[15] = 4000.00 nM, A-431 cells, 10,000 cells per well, approximately 48 hours
[16] = A-431 cells, approximately 48 hours, linear regression on log/linear plot

## 958377 (antisense kG*k[5mC]*kT*dG*dG*dG*dA*dT*dT*dG*dA*dT*dA*kT*kT*k[5mC]) [compound 958377]
[1]
  Yap1 mRNA, % UTC: 90 % UTC
[2]
  Yap1 mRNA, % UTC: 60 % UTC
[3]
  Yap1 mRNA, % UTC: 17 % UTC
[4]
  IC50: 130 nM

## 958668 (kG*kT*kG*dA*dT*d[5mC]*dT*dG*dT*dG*dA*dG*dA*kG*kG*kT; antisense) [compound 958668]
Table 59, 15.6 nM, A-431 cells 10,000 cells per well, 48 hours
  Yap1 mRNA, % UTC: 81 % UTC
Table 59, 62.5 nM, A-431 cells 10,000 cells per well, 48 hours
  Yap1 mRNA, % UTC: 38 % UTC
Table 59, 4000.00 nM, A-431 cells 10,000 cells per well, 48 hours
  Yap1 mRNA, % UTC: 5 % UTC
Table 59, A-431 cells 10,000 cells per well
  IC50: 100 nM

## 958541 (kG*kT*kA*dT*dT*d[5mC]*dT*dA*dT*d[5mC]*d[5mC]*dA*dG*kG*kG*kT; antisense) [compound 958541]
[5]
  Yap1 mRNA, % UTC: 81 % UTC
[6]
  Yap1 mRNA, % UTC: 51 % UTC
[7]
  Yap1 mRNA, % UTC: 9 % UTC
[8]
  IC50: 100 nM

## 958752 (kG*kA*kA*dT*dT*dT*dT*dT*dA*dG*dT*d[5mC]*d[5mC]*kA*kG*kT; antisense) [compound 958752]
Table 58, 15.6 nM, A-431 cells 10,000 cells per well, 48 hours
  Yap1 mRNA, % UTC: 102 % UTC
Table 58, 62.5 nM, A-431 cells 10,000 cells per well, 48 hours
  Yap1 mRNA, % UTC: 66 % UTC
Table 58, 4000.00 nM, A-431 cells 10,000 cells per well, 48 hours
  Yap1 mRNA, % UTC: 9 % UTC
Table 58, A-431 cells 10,000 cells per well
  IC50: 100 nM

## 958543 (kA*k[5mC]*k[5mC]*dT*dT*dA*dT*dA*dG*dT*dA*dT*dT*k[5mC]*kT*kA; antisense) [compound 958543]
[9]
  Yap1 mRNA, % UTC: 84 % UTC
[10]
  Yap1 mRNA, % UTC: 63 % UTC
[11]
  Yap1 mRNA, % UTC: 18 % UTC
[12]
  IC50: 100 nM

## 958580 (kA*kT*kA*dA*dT*d[5mC]*dT*dT*dA*dA*dT*d[5mC]*dT*kG*kT*kG; antisense) [compound 958580]
[13]
  Yap1 mRNA, % UTC: 95 % UTC
[14]
  Yap1 mRNA, % UTC: 59 % UTC
[15]
  Yap1 mRNA, % UTC: 9 % UTC
[16]
  IC50: 100 nM

## 958594 (k[5mC]*kT*k[5mC]*dT*dT*dA*dG*dG*dT*d[5mC]*dT*d[5mC]*d[5mC]*kT*kT*k[5mC]; antisense) [compound 958594]
[13]
  Yap1 mRNA, % UTC: 91 % UTC
[14]
  Yap1 mRNA, % UTC: 70 % UTC
[15]
  Yap1 mRNA, % UTC: 20 % UTC
[16]
  IC50: 200 nM

## 958361 (antisense kG*k[5mC]*kT*d[5mC]*dG*dA*dA*d[5mC]*dA*dT*dG*d[5mC]*dT*kG*kT*kG) [compound 958361]
[1]
  Yap1 mRNA, % UTC: 100 % UTC
[2]
  Yap1 mRNA, % UTC: 80 % UTC
[3]
  Yap1 mRNA, % UTC: 22 % UTC
[4]
  IC50: 220 nM

## 958476 (kT*kT*k[5mC]*d[5mC]*dG*dG*dT*dG*d[5mC]*dA*dT*dG*dT*kG*kT*k[5mC]; antisense) [compound 958476]
[1]
  Yap1 mRNA, % UTC: 71 % UTC
[2]
  Yap1 mRNA, % UTC: 30 % UTC
[3]
  Yap1 mRNA, % UTC: 6 % UTC
[4]
  IC50: 30 nM

## 958473 (kG*kT*k[5mC]*dT*d[5mC]*d[5mC]*dT*dT*dA*dG*dA*dT*d[5mC]*k[5mC]*kT*kT; antisense) [compound 958473]
[9]
  Yap1 mRNA, % UTC: 85 % UTC
[10]
  Yap1 mRNA, % UTC: 60 % UTC
[11]
  Yap1 mRNA, % UTC: 17 % UTC
[12]
  IC50: 100 nM

## 958569 (kA*kG*k[5mC]*d[5mC]*dT*dT*dA*dG*dA*dG*dT*d[5mC]*dA*kA*kT*kT; antisense) [compound 958569]
Table 61, 15.6 nM, A-431 cells 10,000 cells per well, 48 hours
  Yap1 mRNA, % UTC: 82 % UTC
Table 61, 62.5 nM, A-431 cells 10,000 cells per well, 48 hours
  Yap1 mRNA, % UTC: 49 % UTC
Table 61, 4000.00 nM, A-431 cells 10,000 cells per well, 48 hours
  Yap1 mRNA, % UTC: 7 % UTC
Table 61, A-431 cells 10,000 cells per well
  IC50: 100 nM

## 958616 (kG*kG*kT*dG*dG*dT*d[5mC]*dT*dT*dG*dT*dT*d[5mC]*kT*kT*kA; antisense) [compound 958616]
[5]
  Yap1 mRNA, % UTC: 78 % UTC
[6]
  Yap1 mRNA, % UTC: 49 % UTC
[7]
  Yap1 mRNA, % UTC: 17 % UTC
[8]
  IC50: 100 nM

## 958485 (kA*kG*kA*dG*dG*dT*d[5mC]*dA*dG*d[5mC]*dA*dA*dT*kA*k[5mC]*kA; antisense) [compound 958485]
[13]
  Yap1 mRNA, % UTC: 68 % UTC
[14]
  Yap1 mRNA, % UTC: 38 % UTC
[15]
  Yap1 mRNA, % UTC: 8 % UTC
[16]
  IC50: 40 nM
